Results reported in US10160755B2 (Plexxikon Inc., priority 2015, dated 2018).

Key:
c-Kit = c-Kit (Homo sapiens, UniProt P10721); test: c-Kit biochemical assay (per US 2007/0032519)
Method in brief: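 Biochemical kinase inhibition run per US 2007/0032519; values reported as binned IC50 ranges (0.0001–1 μM, 1–10 μM, 10–200 μM).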

FLT3-ITD = molecular target: T1, FLT3-ITD (Homo sapiens, UniProt P36888); test: FLT3-ITD biochemical kinase assay (AlphaScreen)
T1 construct: FLT3-ITD; Invitrogen #PV6190
T1 sequence (P36888 1-993): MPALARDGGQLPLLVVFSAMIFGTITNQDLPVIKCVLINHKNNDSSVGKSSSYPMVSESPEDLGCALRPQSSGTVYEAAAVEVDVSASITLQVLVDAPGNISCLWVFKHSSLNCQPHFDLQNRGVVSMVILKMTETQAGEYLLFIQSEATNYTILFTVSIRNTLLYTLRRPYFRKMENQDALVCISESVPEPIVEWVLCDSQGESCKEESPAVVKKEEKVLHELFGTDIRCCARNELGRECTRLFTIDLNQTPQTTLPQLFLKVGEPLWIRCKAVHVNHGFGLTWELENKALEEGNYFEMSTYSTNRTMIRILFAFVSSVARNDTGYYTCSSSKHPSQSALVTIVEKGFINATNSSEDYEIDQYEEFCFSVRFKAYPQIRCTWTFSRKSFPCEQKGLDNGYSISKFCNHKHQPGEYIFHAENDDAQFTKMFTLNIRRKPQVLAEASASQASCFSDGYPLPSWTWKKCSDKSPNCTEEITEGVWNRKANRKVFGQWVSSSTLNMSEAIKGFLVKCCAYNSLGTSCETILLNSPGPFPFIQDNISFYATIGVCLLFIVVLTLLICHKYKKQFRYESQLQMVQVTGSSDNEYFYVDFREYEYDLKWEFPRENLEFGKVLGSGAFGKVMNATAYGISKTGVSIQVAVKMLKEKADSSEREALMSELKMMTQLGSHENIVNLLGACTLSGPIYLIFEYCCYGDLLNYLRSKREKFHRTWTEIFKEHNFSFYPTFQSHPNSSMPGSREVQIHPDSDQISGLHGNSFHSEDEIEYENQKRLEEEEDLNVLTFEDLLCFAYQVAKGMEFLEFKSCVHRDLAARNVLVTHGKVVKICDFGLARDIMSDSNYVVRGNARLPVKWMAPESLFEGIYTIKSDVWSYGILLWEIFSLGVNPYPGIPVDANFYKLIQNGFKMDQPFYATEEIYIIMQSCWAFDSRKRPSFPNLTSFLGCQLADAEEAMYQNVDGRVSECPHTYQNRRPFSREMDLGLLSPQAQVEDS
Method in brief: (§1)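 First, recombinant FLT3 variant phosphorylates a biotinylated poly(Glu4-Tyr) peptide (30 nM) with ATP at 10 μM (D835Y) or 100 μM (ITD). Streptavidin donor beads are then added for 20 min at room temperature, followed by anti-phosphotyrosine PY20 acceptor beads for 60 min. Signal at 580 nm gives IC50.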

FLT3-D835Y = molecular target: T2, FLT3-D835Y (Homo sapiens, UniProt P36888, D835Y); test: FLT3-D835Y biochemical kinase assay (AlphaScreen)
T2 construct: purchased Invitrogen PV3967
T2 sequence (P36888 27-993 D835Y): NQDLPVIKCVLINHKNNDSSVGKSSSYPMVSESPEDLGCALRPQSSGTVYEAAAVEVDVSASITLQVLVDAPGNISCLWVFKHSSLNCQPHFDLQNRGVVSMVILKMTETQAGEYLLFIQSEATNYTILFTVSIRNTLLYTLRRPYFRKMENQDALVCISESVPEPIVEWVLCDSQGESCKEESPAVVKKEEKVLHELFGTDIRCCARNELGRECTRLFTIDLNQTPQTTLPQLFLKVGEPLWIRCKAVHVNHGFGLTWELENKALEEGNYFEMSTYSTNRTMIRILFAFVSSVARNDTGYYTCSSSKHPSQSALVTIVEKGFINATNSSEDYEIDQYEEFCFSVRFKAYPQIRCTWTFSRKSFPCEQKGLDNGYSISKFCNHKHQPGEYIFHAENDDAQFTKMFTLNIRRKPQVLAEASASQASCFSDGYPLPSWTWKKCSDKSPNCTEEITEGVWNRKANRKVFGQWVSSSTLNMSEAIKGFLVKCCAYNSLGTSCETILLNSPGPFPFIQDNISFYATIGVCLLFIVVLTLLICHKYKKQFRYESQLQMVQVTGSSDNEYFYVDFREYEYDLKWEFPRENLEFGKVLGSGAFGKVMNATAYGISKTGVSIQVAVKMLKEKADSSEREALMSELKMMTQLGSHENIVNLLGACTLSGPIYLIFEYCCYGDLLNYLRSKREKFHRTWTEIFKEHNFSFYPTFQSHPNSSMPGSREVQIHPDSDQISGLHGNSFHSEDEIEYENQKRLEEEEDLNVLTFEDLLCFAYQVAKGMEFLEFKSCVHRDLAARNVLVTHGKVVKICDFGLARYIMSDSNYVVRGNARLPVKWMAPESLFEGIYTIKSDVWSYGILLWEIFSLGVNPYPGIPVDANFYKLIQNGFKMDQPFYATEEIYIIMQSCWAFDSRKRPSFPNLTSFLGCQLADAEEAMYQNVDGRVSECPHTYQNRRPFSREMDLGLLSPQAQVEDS
Method in brief: as §1

Sequence of c-Kit (P10721 26-976): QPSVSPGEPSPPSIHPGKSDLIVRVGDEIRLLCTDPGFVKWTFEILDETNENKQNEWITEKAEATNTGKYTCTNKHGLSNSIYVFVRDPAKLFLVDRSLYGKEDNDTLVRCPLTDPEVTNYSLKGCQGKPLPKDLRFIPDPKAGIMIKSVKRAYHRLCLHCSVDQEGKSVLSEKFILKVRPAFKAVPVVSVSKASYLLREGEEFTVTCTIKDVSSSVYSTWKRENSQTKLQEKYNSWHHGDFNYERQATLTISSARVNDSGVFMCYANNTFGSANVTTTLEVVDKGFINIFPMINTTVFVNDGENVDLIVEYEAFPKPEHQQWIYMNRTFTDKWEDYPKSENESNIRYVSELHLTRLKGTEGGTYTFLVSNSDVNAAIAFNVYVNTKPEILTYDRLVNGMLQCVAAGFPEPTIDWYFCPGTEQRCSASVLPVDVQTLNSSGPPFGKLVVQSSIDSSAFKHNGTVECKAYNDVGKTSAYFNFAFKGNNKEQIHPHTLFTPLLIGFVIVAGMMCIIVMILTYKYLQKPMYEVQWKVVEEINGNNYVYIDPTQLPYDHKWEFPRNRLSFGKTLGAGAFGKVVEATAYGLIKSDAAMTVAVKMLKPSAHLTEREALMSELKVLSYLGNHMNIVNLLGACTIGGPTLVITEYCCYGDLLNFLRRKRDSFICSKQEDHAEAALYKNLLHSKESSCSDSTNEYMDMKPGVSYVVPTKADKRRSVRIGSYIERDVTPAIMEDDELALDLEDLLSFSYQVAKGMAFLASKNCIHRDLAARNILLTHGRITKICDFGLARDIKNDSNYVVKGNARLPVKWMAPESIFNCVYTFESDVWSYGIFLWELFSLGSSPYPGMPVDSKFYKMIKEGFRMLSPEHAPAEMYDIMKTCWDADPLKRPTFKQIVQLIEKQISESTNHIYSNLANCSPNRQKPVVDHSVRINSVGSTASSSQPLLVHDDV

SMILES	IC50 (c-Kit) [µM]	IC50 (FLT3-ITD) [µM]	IC50 (FLT3-D835Y) [µM]
COc1cc(-c2cnc3[nH]cc(-c4ccc5ncn(C)c5c4)c3c2)ccn1 [P-042, 5-(2-methoxy-4-pyridyl)-3-(3-methylbenzimidazol-5-yl)-1H-pyrrolo[2,3-b]pyridine]	1 to 10	0.0001 to 1	0.0001 to 1
COc1ncc(-c2cnc3[nH]cc(-c4ccc5ncn(C(C)(C)C)c5c4)c3n2)cc1F [P-385, 7-(3-tert-butylbenzimidazol-5-yl)-2-(5-fluoro-6-methoxy-3-pyridyl)-5H-pyrrolo[2,3-b]pyrazine]	0.0001 to 1	0.0001 to 1	0.0001 to 1
CS(=O)(=O)Nc1cccc(-c2cnc3[nH]cc(-c4ccc5c(c4)OCCO5)c3n2)c1 [P-059, N-[3-[7-(2,3-dihydro-1,4-benzodioxin-6-yl)-5H-pyrrolo[2,3-b]pyrazin-2-yl]phenyl]methanesulfonamide]	10 to 200	0.0001 to 1	0.0001 to 1
CC(C)(C)n1cnc2ccc(-c3c[nH]c4ncc(C5=CCN(C(=O)C6CC6)C5)cc34)cc21 [P-134, [3-[3-(3-tert-butylbenzimidazol-5-yl)-1H-pyrrolo[2,3-b]pyridin-5-yl]-2,5-dihydropyrrol-1-yl]-cyclopropyl-methanone]	10 to 200	0.0001 to 1	0.0001 to 1
Cn1cnc2ccc(-c3c[nH]c4ncc(-c5cccc(C(F)(F)F)c5)cc34)cc21 [P-132, 1-methyl-6-[5-[3-(trifluoromethyl)phenyl]-1H-pyrrolo[2,3-b]pyridin-3-yl]benzimidazole]	10 to 200	0.0001 to 1	0.0001 to 1
COc1cc(-c2cnc3[nH]cc(-c4ccc5ncn(C)c5c4)c3c2)ccc1Cl [P-092, 5-(4-chloro-3-methoxy-phenyl)-3-(3-methylbenzimidazol-5-yl)-1H-pyrrolo[2,3-b]pyridine]	0.0001 to 1	0.0001 to 1	0.0001 to 1
COc1cc(-c2cnc3[nH]cc(-c4ccc5ncn(C)c5c4)c3c2)cc(C)n1 [P-124, 5-(2-methoxy-6-methyl-4-pyridyl)-3-(3-methylbenzimidazol-5-yl)-1H-pyrrolo[2,3-b]pyridine]	10 to 200	0.0001 to 1	0.0001 to 1
O=C(C1CC1)N1CC=C(c2cnc3[nH]cc(-c4ccc5ncn(CC(F)(F)F)c5c4)c3c2)C1 [P-133, cyclopropyl-[3-[3-[3-(2,2,2-trifluoroethyl)benzimidazol-5-yl]-1H-pyrrolo[2,3-b]pyridin-5-yl]-2,5-dihydropyrrol-1-yl]methanone]	1 to 10	0.0001 to 1	0.0001 to 1
Clc1cnc2[nH]cc(-c3ccc4nc[nH]c4c3)c2c1 [P-035, 3-(3H-benzimidazol-5-yl)-5-chloro-1H-pyrrolo[2,3-b]pyridine]	1 to 10	0.0001 to 1	0.0001 to 1
COc1cc(-c2cnc3[nH]cc(-c4ccc5ncn(CC(F)(F)F)c5c4)c3n2)ccn1 [P-098, 2-(2-methoxy-4-pyridyl)-7-[3-(2,2,2-trifluoroethyl)benzimidazol-5-yl]-5H-pyrrolo[2,3-b]pyrazine]	10 to 200	0.0001 to 1	0.0001 to 1
CC1(COc2cnc3[nH]cc(-c4ccc5[nH]cnc5c4)c3c2)COC1 [P-008, 3-(1H-benzimidazol-5-yl)-5-[(3-methyloxetan-3-yl)methoxy]-1H-pyrrolo[2,3-b]pyridine]	1 to 10	0.0001 to 1	1 to 10
O=C(C1CC1)N1CC=C(c2cnc3[nH]cc(-c4ccc5ncn(C6CCCC6)c5c4)c3n2)C1 [P-126, [3-[7-(3-cyclopentylbenzimidazol-5-yl)-5H-pyrrolo[2,3-b]pyrazin-2-yl]-2,5-dihydropyrrol-1-yl]-cyclopropyl-methanone]	10 to 200	0.0001 to 1	0.0001 to 1
CC(C)N1CCOc2ccc(-c3c[nH]c4ncc(-c5cccc(NS(C)(=O)=O)c5)nc34)cc21 [P-086, N-[3-[7-(4-isopropyl-2,3-dihydro-1,4-benzoxazin-6-yl)-5H-pyrrolo[2,3-b]pyrazin-2-yl]phenyl]methanesulfonamide]	10 to 200	0.0001 to 1	0.0001 to 1
CC(C)(C)n1cnc2ccc(-c3c[nH]c4ncc(-c5ccnc(F)c5)nc34)cc21 [P-384, 7-(3-tert-butylbenzimidazol-5-yl)-2-(2-fluoro-4-pyridyl)-5H-pyrrolo[2,3-b]pyrazine]	0.0001 to 1	0.0001 to 1	0.0001 to 1
COc1cnc2[nH]cc(-c3ccc4[nH]nnc4c3)c2c1 [P-014, 5-(5-methoxy-1H-pyrrolo[2,3-b]pyridin-3-yl)-1H-benzotriazole]	10 to 200	0.0001 to 1	0.0001 to 1
CC(C)(C)n1cnc2ccc(-c3c[nH]c4ncc(C5=CCN(C(=O)C6CC6)C5)nc34)cc21 [P-127, [3-[7-(3-tert-butylbenzimidazol-5-yl)-5H-pyrrolo[2,3-b]pyrazin-2-yl]-2,5-dihydropyrrol-1-yl]-cyclopropyl-methanone]	1 to 10	0.0001 to 1	0.0001 to 1
COc1cnc2[nH]cc(-c3ccc4[nH]c(C)nc4c3)c2c1 [P-015, 5-methoxy-3-(2-methyl-1H-benzimidazol-5-yl)-1H-pyrrolo[2,3-b]pyridine]	10 to 200	0.0001 to 1	1 to 10
Cc1cnc2[nH]cc(-c3ccc4ncn(C)c4c3)c2c1 [P-018, 1-methyl-6-(5-methyl-1H-pyrrolo[2,3-b]pyridin-3-yl)benzimidazole]	1 to 10	0.0001 to 1	0.0001 to 1
CCn1cnc2ccc(-c3c[nH]c4ncc(OC)cc34)cc21 [P-048, 1-ethyl-6-(5-methoxy-1H-pyrrolo[2,3-b]pyridin-3-yl)benzimidazole]	10 to 200	0.0001 to 1	0.0001 to 1
CS(=O)(=O)Nc1cccc(-c2cnc3[nH]cc(-c4ccc5ncn(C6CCCC6)c5c4)c3c2)c1 [P-066, N-[3-[3-(3-cyclopentylbenzimidazol-5-yl)-1H-pyrrolo[2,3-b]pyridin-5-yl]phenyl]methanesulfonamide]	0.0001 to 1	0.0001 to 1	0.0001 to 1
COc1ccc2c(-c3ccc4ncn(C)c4c3)c[nH]c2n1 [P-034, 6-methoxy-3-(3-methylbenzimidazol-5-yl)-1H-pyrrolo[2,3-b]pyridine]	10 to 200	1 to 10	1 to 10
Cc1nc2cc(-c3c[nH]c4ncccc34)ccc2[nH]1 [P-012, 2-methyl-5-(1H-pyrrolo[2,3-b]pyridin-3-yl)-1H-benzimidazole]	10 to 200	1 to 10	1 to 10
CS(=O)(=O)Nc1cccc(-c2cnc3[nH]cc(-c4ccc5c(c4)OCO5)c3n2)c1 [P-058, N-[3-[7-(1,3-benzodioxol-5-yl)-5H-pyrrolo[2,3-b]pyrazin-2-yl]phenyl]methanesulfonamide]	10 to 200	0.0001 to 1	0.0001 to 1
